Measured values taken from paper PMC5207512, “Inhibition of Helicobacter pylori and Its Associated Urease by Palmatine: Investigation on the Potential Mechanism” (PLoS ONE, 2017).
“And” between values parts separate entries of the source, which are not always exact repeats. Identical values can stand only once. Like-named read-outs stand apart in the source and are kept apart here.

Experiments:
H. pylori ATCC 43504 = test: MIC by agar dilution method; assay type: cell-based; conditions: Helicobacter pylori
Method: (§1) A total of four H. pylori strains were studied, including three reference strains ATCC 43504, NCTC 26695 and SS1 gifted from Professor Richard Ferrero, Monash University, Australia, and one clinical isolate ICDC 111001 obtained from Professor Zhang Jianzhong, Chinese Center of Disease Control and Prevention. […] The MICs of Pal against the four H. pylori strains were evaluated by using agar dilution method. […] H. pylori strains were harvested and resuspended in PBS (1.0–2.0 McFarland were defined based on the strain properties). […] After 72 h, the MIC values were determined as the lowest concentration at which there was no strain growth judged by visual examination. Metronidazole was used as the positive control. The experiments were evaluated under two different pH (7.4 and 5.3) conditions and repeated twice.

[1] = tested on: H. pylori ICDC 111001 (clinical isolate); test: MIC by agar dilution method; assay type: cell-based; conditions: Helicobacter pylori
Method: as §1

H. pylori NCTC 26695 = test: MIC by agar dilution method; assay type: cell-based; conditions: Helicobacter pylori
Method: as §1

H. pylori SS1 = test: MIC by agar dilution method; assay type: cell-based; conditions: Helicobacter pylori
Method: as §1

[2] = tested on: four H. pylori strains (ATCC 43504, NCTC 26695, SS1 and ICDC 111001); test: MIC by agar dilution method, range over the four strains; assay type: cell-based; conditions: Helicobacter pylori, read-out: MIC values against the four H. pylori strains
Method: as §1

jack bean urease (JBU) [3] = molecular target: T1, jack bean urease (JBU) (Canavalia ensiformis, UniProt P07374); test: Inhibition kinetic study (Lineweaver-Burk plots); assay type: biochemical; conditions: for Lineweaver-Burk plot raw value (reciprocal velocity): Fig 3B JBU
T1 construct: Urease from jack bean (Canavalia ensiformis, JBU); purchased Sigma-Aldrich (St Louis, MO, USA) type III (catalogue number not given)
Method: Michaelis constant KM and the maximum velocity vmax values were evaluated by means of Lineweaver—Burk plots, using the initial velocities at different urea concentrations (ranging from 0.3125 to 15 mM), in the absence or presence of 1.00, 0.50, and 0.25 mM Pal. The concentrations of HPU and JBU were both 0.25 mg/mL in the assays. The values were obtained by applying nonlinear regression to the Michaelis-Menten equation. All experiments were performed in triplicate.

H. pylori urease (HPU) [4] = molecular target: T2, H. pylori urease (HPU) (Helicobacter pylori, UniProt P69996); test: biochemical; conditions: read-out: Residual urease activity (percent of control), Fig 4A HPU, Pal 0.5 mM, thiols 1.25 mM, replicates
T2 construct: HPU was prepared as previously described; made in house
Method: (§2) For the protection with thiols-containing compounds, the mixture consisting of 0.25 mg/mL urease (HPU or JBU), 0.5 mM Pal (for both HPU and JBU) and 1.25 mM thiols (DTT, GSH and L-cys) was incubated for 5, 10, 20, and 40 min at 37°C, respectively. The control sample instead of the protectors contained a proper volume of respective buffer.

jack bean urease (JBU) [5] = molecular target: T1, jack bean urease (JBU); test: biochemical; conditions: read-out: Residual urease activity (percent of control), Fig 4B JBU, Pal 0.5 mM, thiols 1.25 mM, replicates
Method: as §2

H. pylori urease (HPU) [6] = molecular target: T2, H. pylori urease (HPU); test: biochemical; assay type: biochemical; conditions: for activity at 500 µM: read-out: Urease activity, Fig 6A HPU, Pal 0.5 mM, DTT 1.25 mM
Method: (§3) The reactivation of Pal-inactivated urease was investigated by DTT application. The preincubation mixture consisted of 0.25 mg/mL HPU or JBU and 0.5 mM Pal in 20 mM HEPES buffer (pH 7.5). Then the mixture was further incubated with 1.25 mM DTT after 20 min. The enzymatic activity of urease was determined before and after the addition of DTT. After a while, aliquots were withdrawn and the urease residual activity was determined. The experiments were repeated three times.

jack bean urease (JBU) [7] = molecular target: T1, jack bean urease (JBU); test: biochemical; assay type: biochemical; conditions: for activity at 500 µM: read-out: Urease activity, Fig 6B JBU, Pal 0.5 mM, DTT 1.25 mM
Method: as §3

[8] = set-up: method as in PMID 23159469; conditions: among berberine, coptisine, palmatine and epiberberine; in vitro and in vivo assays; cited from earlier work
[9] = set-up: method as in PMID 24795799; conditions: cited from earlier work

T1 sequence (P07374 whole entry, looked up): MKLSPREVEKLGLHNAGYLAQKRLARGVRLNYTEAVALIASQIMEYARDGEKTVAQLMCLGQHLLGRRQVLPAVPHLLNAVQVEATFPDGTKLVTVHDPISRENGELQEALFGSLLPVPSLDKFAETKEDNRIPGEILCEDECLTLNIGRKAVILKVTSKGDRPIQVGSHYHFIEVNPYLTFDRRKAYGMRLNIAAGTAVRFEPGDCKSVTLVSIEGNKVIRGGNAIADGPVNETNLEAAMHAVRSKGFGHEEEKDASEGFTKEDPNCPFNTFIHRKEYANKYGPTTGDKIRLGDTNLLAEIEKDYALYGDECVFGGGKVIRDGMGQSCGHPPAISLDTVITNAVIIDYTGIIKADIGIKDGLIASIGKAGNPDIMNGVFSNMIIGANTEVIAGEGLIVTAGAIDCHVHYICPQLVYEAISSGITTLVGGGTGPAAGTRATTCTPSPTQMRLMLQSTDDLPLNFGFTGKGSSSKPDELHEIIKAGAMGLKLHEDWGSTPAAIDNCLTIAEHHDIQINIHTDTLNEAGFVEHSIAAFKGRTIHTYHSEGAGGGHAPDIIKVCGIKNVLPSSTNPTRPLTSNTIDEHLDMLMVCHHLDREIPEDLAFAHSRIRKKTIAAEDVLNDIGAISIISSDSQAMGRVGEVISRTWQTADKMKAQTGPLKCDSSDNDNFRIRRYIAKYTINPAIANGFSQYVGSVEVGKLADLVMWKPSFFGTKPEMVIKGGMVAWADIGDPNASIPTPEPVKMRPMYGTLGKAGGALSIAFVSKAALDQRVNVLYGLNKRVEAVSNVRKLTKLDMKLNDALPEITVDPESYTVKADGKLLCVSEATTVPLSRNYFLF
T2 sequence (P14916 whole entry): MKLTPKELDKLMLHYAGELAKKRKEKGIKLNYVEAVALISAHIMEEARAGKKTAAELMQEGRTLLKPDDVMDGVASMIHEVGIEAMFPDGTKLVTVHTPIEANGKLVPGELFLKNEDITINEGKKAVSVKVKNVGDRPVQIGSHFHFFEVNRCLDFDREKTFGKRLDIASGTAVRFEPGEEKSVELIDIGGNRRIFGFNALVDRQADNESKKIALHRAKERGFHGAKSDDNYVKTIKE
T2 sequence (P69996 whole entry): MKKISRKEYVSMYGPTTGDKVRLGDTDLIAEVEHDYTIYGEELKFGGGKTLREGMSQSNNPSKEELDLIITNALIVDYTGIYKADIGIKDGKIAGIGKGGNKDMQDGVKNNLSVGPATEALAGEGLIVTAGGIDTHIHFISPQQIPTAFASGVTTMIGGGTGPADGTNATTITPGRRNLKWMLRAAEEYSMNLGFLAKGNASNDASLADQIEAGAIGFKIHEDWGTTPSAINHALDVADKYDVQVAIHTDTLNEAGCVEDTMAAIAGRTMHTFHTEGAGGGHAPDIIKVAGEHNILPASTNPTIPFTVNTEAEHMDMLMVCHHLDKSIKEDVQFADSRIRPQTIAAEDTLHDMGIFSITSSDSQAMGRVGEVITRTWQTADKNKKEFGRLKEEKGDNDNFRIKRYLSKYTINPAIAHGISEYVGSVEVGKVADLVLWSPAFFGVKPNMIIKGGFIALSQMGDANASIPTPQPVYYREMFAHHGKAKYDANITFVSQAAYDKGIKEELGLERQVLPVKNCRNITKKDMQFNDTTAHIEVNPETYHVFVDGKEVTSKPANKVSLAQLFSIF

COc1cc2c(cc1OC)-c1cc3ccc(OC)c(OC)c3c[n+]1CC2 [Pal, Palmatine] gave an MIC (H. pylori ATCC 43504; ATCC43504, pH 5.3, 72 h) of 75 µg/mL, an MIC (H. pylori ATCC 43504; ATCC43504, pH 7.4, 72 h) of 100 µg/mL and an MIC ([1]; pH 5.3, 72 h) of 75 µg/mL. For the same compound, the MIC ([1]; pH 7.4, 72 h) was 100 µg/mL, the MIC (H. pylori NCTC 26695; NCTC26695, pH 5.3, 72 h) was 100 µg/mL and the MIC (H. pylori NCTC 26695; NCTC26695, pH 7.4, 72 h) was 200 µg/mL. For the same compound, the MIC (H. pylori SS1; pH 5.3, 72 h) was 75 µg/mL, the MIC (H. pylori SS1; pH 7.4, 72 h) was 100 µg/mL and the MIC ([2]; acidic conditions (pH 5.3)) was 75 to 100 µg/mL. The MIC ([2]; neutral conditions (pH 7.4)) was 100 to 200 µg/mL, the “Lineweaver-Burk plot raw value (reciprocal velocity)” value (shortened to “Lineweaver-Burk plot raw value”) (jack bean urease (JBU) [3]; Pal=0.25 mM, 1/urea 0.0333333) was 6.736 and 6.4288 and 6.3593 and the “Lineweaver-Burk plot raw value” value (jack bean urease (JBU) [3]; Pal=0.25 mM, 1/urea 0.0666667) was 9.843 and 8.358 and 8.117. For the same compound, the “Lineweaver-Burk plot raw value” value (jack bean urease (JBU) [3]; Pal=0.25 mM, 1/urea 0.266667) was 12.8949 and 20.429 and 18.9394, the “Lineweaver-Burk plot raw value” value (jack bean urease (JBU) [3]; Pal=0.25 mM, 1/urea 0.533333) was 27.5862 and 33.6135 and 34.6021 and the “Lineweaver-Burk plot raw value” value (jack bean urease (JBU) [3]; Pal=0.25 mM, 1/urea 1.06667) was 85.4701 and 51.1509 and 56.8182. The “Lineweaver-Burk plot raw value” value (jack bean urease (JBU) [3]; Pal=0.50 mM, 1/urea 0.0333333) was 6.923 and 7.202 and 9.225, the “Lineweaver-Burk plot raw value” value (jack bean urease (JBU) [3]; Pal=0.50 mM, 1/urea 0.0666667) was 8.807 and 9.298 and 11.1669 and the “Lineweaver-Burk plot raw value” value (jack bean urease (JBU) [3]; Pal=0.50 mM, 1/urea 0.133333) was 18.6916 and 14.9813 and 17.4672. For the same compound, the “Lineweaver-Burk plot raw value” value (jack bean urease (JBU) [3]; Pal=0.50 mM, 1/urea 0.266667) was 37.037 and 24.1255 and 22.7273, the “Lineweaver-Burk plot raw value” value (jack bean urease (JBU) [3]; Pal=0.50 mM, 1/urea 0.533333) was 57.971 and 34.3053 and 43.4783 and the “Lineweaver-Burk plot raw value” value (jack bean urease (JBU) [3]; Pal=1.00 mM, 1/urea 0.0333333) was 7.877 and 9.307 and 11.4613. The “Lineweaver-Burk plot raw value” value (jack bean urease (JBU) [3]; Pal=1.00 mM, 1/urea 0.0666667) was 11.4679 and 16.2867 and 12.6662, the “Lineweaver-Burk plot raw value” value (jack bean urease (JBU) [3]; Pal=1.00 mM, 1/urea 0.133333) was 16.1031 and 22.0507 and 21.7155 and the “Lineweaver-Burk plot raw value” value (jack bean urease (JBU) [3]; Pal=1.00 mM, 1/urea 0.266667) was 25.0313 and 34.7222 and 40.9836. For the same compound, the “Lineweaver-Burk plot raw value” value (jack bean urease (JBU) [3]; Pal=1.00 mM, 1/urea 0.533333) was 40.4858 and 35.0263 and 56.6572, the “type of urease inhibition” value (jack bean urease (JBU) [3]; JBU, Lineweaver-Burk) was “noncompetitive” and the remaining activity at 500 µM (H. pylori urease (HPU) [4]; 5 min incubation) was 68.6%. For the same compound, the remaining activity at 500 µM (H. pylori urease (HPU) [4]; 10 min incubation) was 62.4%, the remaining activity at 500 µM (H. pylori urease (HPU) [4]; 20 min incubation) was 40.4% and the remaining activity at 500 µM (H. pylori urease (HPU) [4]; 40 min incubation) was 24.2%. It also gave a remaining activity at 500 µM (jack bean urease (JBU) [5]; 5 min incubation) of 30.8%, a remaining activity at 500 µM (jack bean urease (JBU) [5]; 10 min incubation) of 35.2% and a remaining activity at 500 µM (jack bean urease (JBU) [5]; 20 min incubation) of 34.3%. The remaining activity at 500 µM (jack bean urease (JBU) [5]; 40 min incubation) was 32.7%, the activity at 500 µM (H. pylori urease (HPU) [6]; 5 min, incubation time 5 min) was 54% and the activity at 500 µM (H. pylori urease (HPU) [6]; 10 min, incubation time 10 min) was 49.3%. The activity at 500 µM (H. pylori urease (HPU) [6]; 0.25 h, incubation time 15 min) was 49.3%, the activity at 500 µM (H. pylori urease (HPU) [6]; 20 min, incubation time 20 min) was 31.8% and the reversibility of inhibition (H. pylori urease (HPU) [6]; HPU, DTT reactivation assay) was “reversible”. It also gave an activity at 500 µM (jack bean urease (JBU) [7]; 5 min, incubation time 5 min) of 32.2%, an activity at 500 µM (jack bean urease (JBU) [7]; 10 min, incubation time 10 min) of 20.5% and an activity at 500 µM (jack bean urease (JBU) [7]; 0.25 h, incubation time 15 min) of 21.6%. The activity at 500 µM (jack bean urease (JBU) [7]; 20 min, incubation time 20 min) was 30.9%, the reversibility of inhibition (jack bean urease (JBU) [7]; JBU, DTT reactivation assay) was “reversible” and the toxicity [8] was “minimal”. The anti-ulcerogenic activity [9] was “better than that of the C. chinensis extract and its active principle berberine”.
